# Test results taken from PMC8745314, “Novel Tetrazole-Based Antimicrobial Agents Targeting Clinical Bacteria Strains: Exploring the Inhibition of Staphylococcus aureus DNA Topoisomerase IV and Gyrase” (International Journal of Molecular Sciences, 2021).
# Tests used:
# Assay in all cases: MIC broth microdilution, standard strain
# Format in all cases: cell-based
# E. coli ATCC 25922 = details: Escherichia coli, ATCC25922; E. coli ATCC 25922, standard strain, 19 h at 35 °C; read-out: minimal inhibitory concentration (MIC)
# Method: (§1) All synthesized compounds were tested in vitro against a set of bacteria, including representative standard Gram-positive and Gram-negative rods. Compounds were screened for their minimal inhibitory concentrations (MICs). […] These three compounds were also found to be good inhibitors of the growth of Gram-negative rods: […] The antimicrobial assays were conducted using reference strains of bacteria derived from international microbe collections: American Type Culture Collection (ATCC) and National Collection of Type Culture (NCTC). The following standard strains of bacteria were used: Gram-positive-Staphylococcus aureus NCTC 4163, Staphylococcus aureus ATCC 25923, Staphylococcus aureus ATCC 6538, Staphylococcus aureus ATCC 29213, Staphylococcus epidermidis ATCC 12228, Staphylococcus epidermidis ATCC 35984, Gram-negative: Escherichia coli ATCC 25922, Pseudomonas aeruginosa ATCC 15442. Clinical strains of bacteria used in this study: Gram-positive: Staphylococcus epidermidis 5253, Staphylococcus epidermidis 4243, Staphylococcus aureus […], Staphylococcus aureus […] and Gram-negative: Escherichia coli 520, Escherichia coli 600, Klebsiella pneumoniae 510 and Pseudomonas aeruginosa 659 were obtained from the collection of the Department of Pharmaceutical Microbiology, Medical University of Warsaw, Poland and they were isolated from different biological materials taken from the patients hospitalized in the Warsaw Medical University hospitals. Antimicrobial activity was examined by the minimal inhibitory concentration (MIC) method under standard procedures provided by CLSI with some modifications. MIC was determined by the two-fold serial broth microdilution method in 96-well microtitration plates using Mueller-Hinton II broth medium (Becton Dickinson, Franklin Lakes, NJ, USA). The final inoculum of all studied bacteria was 10^6 CFU/mL (colony forming unit per milliliter). The stock solution of tested compounds was prepared in dimethyl sulfoxide (DMSO) and diluted to a maximum of 1% of solvent content with a sterile medium.
# P. aeruginosa ATCC 15442 = details: Pseudomonas aeruginosa, ATCC15442; P. aeruginosa ATCC 15442, standard strain, 19 h at 35 °C; read-out: minimal inhibitory concentration (MIC)
# Method: as §1
# S. aureus ATCC 25923 = details: Staphylococcus aureus, ATCC25923; S. aureus ATCC 25923, standard strain, 19 h at 35 °C; read-out: minimal inhibitory concentration (MIC)
# Method: as §1
# S. aureus NCTC 4163 = details: Staphylococcus aureus, NCTC4163; S. aureus NCTC 4163, standard strain, 19 h at 35 °C; read-out: minimal inhibitory concentration (MIC)
# Method: as §1
# S. aureus ATCC 6538 = details: Staphylococcus aureus, ATCC6538; S. aureus ATCC 6538, standard strain, 19 h at 35 °C; read-out: minimal inhibitory concentration (MIC)
# Method: (§2) All synthesized compounds were tested in vitro against a set of bacteria, including representative standard Gram-positive and Gram-negative rods. Compounds were screened for their minimal inhibitory concentrations (MICs). […] The antimicrobial assays were conducted using reference strains of bacteria derived from international microbe collections: American Type Culture Collection (ATCC) and National Collection of Type Culture (NCTC). The following standard strains of bacteria were used: Gram-positive-Staphylococcus aureus NCTC 4163, Staphylococcus aureus ATCC 25923, Staphylococcus aureus ATCC 6538, Staphylococcus aureus ATCC 29213, Staphylococcus epidermidis ATCC 12228, Staphylococcus epidermidis ATCC 35984, Gram-negative: Escherichia coli ATCC 25922, Pseudomonas aeruginosa ATCC 15442. Clinical strains of bacteria used in this study: Gram-positive: Staphylococcus epidermidis 5253, Staphylococcus epidermidis 4243, Staphylococcus aureus […], Staphylococcus aureus […] and Gram-negative: Escherichia coli 520, Escherichia coli 600, Klebsiella pneumoniae 510 and Pseudomonas aeruginosa 659 were obtained from the collection of the Department of Pharmaceutical Microbiology, Medical University of Warsaw, Poland and they were isolated from different biological materials taken from the patients hospitalized in the Warsaw Medical University hospitals. […] MIC was determined by the two-fold serial broth microdilution method in 96-well microtitration plates using Mueller-Hinton II broth medium (Becton Dickinson, Franklin Lakes, NJ, USA). The final inoculum of all studied bacteria was 10^6 CFU/mL (colony forming unit per milliliter). The stock solution of tested compounds was prepared in dimethyl sulfoxide (DMSO) and diluted to a maximum of 1% of solvent content with a sterile medium.
# [1] = system: S. epidermidis ATCC 12228; details: Staphylococcus epidermidis, ATCC12228; S. epidermidis ATCC 12228, standard strain, 19 h at 35 °C; read-out: minimal inhibitory concentration (MIC)
# Method: as §2
# [2] = system: S. epidermidis ATCC 35984; details: Staphylococcus epidermidis, ATCC35984; S. epidermidis ATCC 35984, standard strain, 19 h at 35 °C; read-out: minimal inhibitory concentration (MIC)
# Method: as §2
# S. aureus ATCC 29213 = details: Staphylococcus aureus, ATCC29213; S. aureus ATCC 29213, standard strain, 19 h at 35 °C; read-out: minimal inhibitory concentration (MIC)
# Method: as §2
compound,measurement,setting,value
"Cc1ccc(-n2nnnc2NN2C(=O)C3C(C2=O)C2(C(C)C)C=CC3(C)CC2)cc1 (stereo not shown) [Compound 10, 4-Isopropyl-7-methyl-2-((1-(p-tolyl)-1H-tetrazol-5-yl)amino)-3a,4,7,7a-tetrahydro-1H-4,7-ethanoisoindole-1,3(2H)-dione]",MIC,E. coli ATCC 25922,16 µg/mL
same,MIC,P. aeruginosa ATCC 15442,> 256 µg/mL
same,MIC,S. aureus ATCC 25923,4 µg/mL
same,MIC,S. aureus NCTC 4163,4 µg/mL
same,MIC,S. aureus ATCC 6538,4 µg/mL
same,MIC,[1],32 µg/mL
same,MIC,[2],8 µg/mL
same,MIC,S. aureus ATCC 29213,8 µg/mL
"CC1=C(C)C2(C)CC1(C)C1C(=O)N(Nc3nnnn3-c3ccccc3Br)C(=O)C12 (stereo not shown) [Compound 3, 2-((1-(2-Bromophenyl)-1H-tetrazol-5-yl)amino)-4,5,6,7-tetramethyl-3a,4,7,7a-tetrahydro-1H-4,7-methanoisoindole-1,3(2H)-dione]",MIC,E. coli ATCC 25922,0.4 µg/mL
same,MIC,P. aeruginosa ATCC 15442,16 µg/mL
same,MIC,S. aureus ATCC 25923,0.1 µg/mL
same,MIC,S. aureus NCTC 4163,0.1 µg/mL
same,MIC,S. aureus ATCC 6538,0.2 µg/mL
same,MIC,[1],2 µg/mL
same,MIC,[2],0.2 µg/mL
same,MIC,S. aureus ATCC 29213,0.2 µg/mL
"CC1=C(C)C2(C)CC1(C)C1C(=O)N(Nc3nnnn3-c3ccccc3)C(=O)C12 (stereo not shown) [Compound 6, 4,5,6,7-Tetramethyl-2-((1-phenyl-1H-tetrazol-5-yl)amino)-3a,4,7,7a-tetrahydro-1H-4,7-methanoisoindole-1,3(2H)-dione]",MIC,E. coli ATCC 25922,8 µg/mL
same,MIC,P. aeruginosa ATCC 15442,> 256 µg/mL
same,MIC,S. aureus ATCC 25923,2 µg/mL
same,MIC,S. aureus NCTC 4163,2 µg/mL
same,MIC,S. aureus ATCC 6538,2 µg/mL
same,MIC,[1],16 µg/mL
same,MIC,[2],4 µg/mL
same,MIC,S. aureus ATCC 29213,4 µg/mL
"CC(C)C12C=CC(C)(CC1)C1C(=O)N(Nc3nnnn3-c3ccc([N+](=O)[O-])cc3)C(=O)C12 (stereo not shown) [Compound 8, 4-Isopropyl-7-methyl-2-((1-(4-nitrophenyl)-1H-tetrazol-5-yl)amino)-3a,4,7,7a-tetrahydro-1H-4,7-ethanoisoindole-1,3(2H)-dione]",MIC,E. coli ATCC 25922,> 256 µg/mL
same,MIC,P. aeruginosa ATCC 15442,> 256 µg/mL
same,MIC,S. aureus ATCC 25923,8 µg/mL
same,MIC,S. aureus NCTC 4163,8 µg/mL
same,MIC,S. aureus ATCC 6538,8 µg/mL
same,MIC,[1],16 µg/mL
same,MIC,[2],16 µg/mL
same,MIC,S. aureus ATCC 29213,8 µg/mL
"CC1=C(C)C2(C)CC1(C)C1C(=O)N(Nc3nnnn3-c3cccc(C(F)(F)F)c3)C(=O)C12 (stereo not shown) [Compound 1, 4,5,6,7-Tetramethyl-2-((1-(3-(trifluoromethyl)phenyl)-1H-tetrazol-5-yl)amino)-3a,4,7,7a-tetrahydro-1H-4,7-methanoisoindole-1,3(2H)-dione]",MIC,E. coli ATCC 25922,0.4 µg/mL
same,MIC,P. aeruginosa ATCC 15442,12.8 µg/mL
same,MIC,S. aureus ATCC 25923,0.2 µg/mL
same,MIC,S. aureus NCTC 4163,0.2 µg/mL
same,MIC,S. aureus ATCC 6538,0.2 µg/mL
same,MIC,[1],3.2 µg/mL
same,MIC,[2],0.2 µg/mL
same,MIC,S. aureus ATCC 29213,0.2 µg/mL
"CC(C)C12C=CC(C)(CC1)C1C(=O)N(Nc3nnnn3-c3ccccc3Br)C(=O)C12 (stereo not shown) [Compound 9, 2-((1-(2-Bromophenyl)-1H-tetrazol-5-yl)amino)-4-isopropyl-7-methyl-3a,4,7,7a-tetrahydro-1H-4,7-ethanoisoindole-1,3(2H)-dione]",MIC,E. coli ATCC 25922,128 µg/mL
same,MIC,P. aeruginosa ATCC 15442,> 256 µg/mL
same,MIC,S. aureus ATCC 25923,64 µg/mL
same,MIC,S. aureus NCTC 4163,64 µg/mL
same,MIC,S. aureus ATCC 6538,64 µg/mL
same,MIC,[1],128 µg/mL
same,MIC,[2],64 µg/mL
same,MIC,S. aureus ATCC 29213,64 µg/mL
"CC1=C(C)C2(C)CC1(C)C1C(=O)N(Nc3nnnn3-c3ccc([N+](=O)[O-])cc3)C(=O)C12 (stereo not shown) [Compound 4, 4,5,6,7-Tetramethyl-2-((1-(4-nitrophenyl)-1H-tetrazol-5-yl)amino)-3a,4,7,7a-tetrahydro-1H-4,7-methanoisoindole-1,3(2H)-dione]",MIC,E. coli ATCC 25922,256 µg/mL
same,MIC,P. aeruginosa ATCC 15442,> 256 µg/mL
same,MIC,S. aureus ATCC 25923,8 µg/mL
same,MIC,S. aureus NCTC 4163,16 µg/mL
same,MIC,S. aureus ATCC 6538,32 µg/mL
same,MIC,[1],32 µg/mL
same,MIC,[2],32 µg/mL
same,MIC,S. aureus ATCC 29213,16 µg/mL
"CC1=C(C)C2(C)CC1(C)C1C(=O)N(Nc3nnnn3-c3ccccc3Cl)C(=O)C12 (stereo not shown) [Compound 2, 2-((1-(2-Chlorophenyl)-1H-tetrazol-5-yl)amino)-4,5,6,7-tetramethyl-3a,4,7,7a-tetrahydro-1H-4,7-methanoisoindole-1,3(2H)-dione]",MIC,E. coli ATCC 25922,1.6 µg/mL
same,MIC,P. aeruginosa ATCC 15442,25.6 µg/mL
same,MIC,S. aureus ATCC 25923,0.4 µg/mL
same,MIC,S. aureus NCTC 4163,0.4 µg/mL
same,MIC,S. aureus ATCC 6538,0.4 µg/mL
same,MIC,[1],3.2 µg/mL
same,MIC,[2],0.4 µg/mL
same,MIC,S. aureus ATCC 29213,0.8 µg/mL
